# Measured values: the supplement of paper PMC13380429
# Assays:
# Details in all cases: 72 h
# Caco-2 [1] = assay: cell viability relative to DMSO; higher = less toxic
# Calu-3 [2] = assay: as above
# HepG2 [3] = assay: as above
# U2OS [4] = assay: as above
# Vero E6 [5] = assay: as above
# Calu-3 [6] = assay: relative viability EC50 (midpoint between 100% and the lowest measured viability); higher = less toxic
# HepG2 [7] = assay: as above
# Vero E6 [8] = assay: as above
# Caco-2 [9] = assay: drug sensitivity score (DSS) for viability; higher = more toxic; extreme values may be limits of the assay
# Calu-3 [10] = assay: as above
# HepG2 [11] = assay: as above
# U2OS [12] = assay: as above
# Vero E6 [13] = assay: as above
# Caco-2 [14] = assay: relative viability EC50 (midpoint between 100% and the lowest measured viability); higher = less toxic
# U2OS [15] = assay: as above
Structure (SMILES),cell viability (Caco-2 [1]; 1 nM) [%],cell viability (Caco-2 [1]; 10 nM) [%],cell viability (Caco-2 [1]; 100 nM) [%],cell viability (Caco-2 [1]; 1000 nM) [%],cell viability (Caco-2 [1]; 10000 nM) [%],cell viability (Calu-3 [2]; 1 nM) [%],cell viability (Calu-3 [2]; 10 nM) [%],cell viability (Calu-3 [2]; 100 nM) [%],cell viability (Calu-3 [2]; 1000 nM) [%],cell viability (Calu-3 [2]; 10000 nM) [%],cell viability (HepG2 [3]; 1 nM) [%],cell viability (HepG2 [3]; 10 nM) [%],cell viability (HepG2 [3]; 100 nM) [%],cell viability (HepG2 [3]; 1000 nM) [%],cell viability (HepG2 [3]; 10000 nM) [%],cell viability (U2OS [4]; 1 nM) [%],cell viability (U2OS [4]; 10 nM) [%],cell viability (U2OS [4]; 100 nM) [%],cell viability (U2OS [4]; 1000 nM) [%],cell viability (U2OS [4]; 10000 nM) [%],cell viability (Vero E6 [5]; 1 nM) [%],cell viability (Vero E6 [5]; 10 nM) [%],cell viability (Vero E6 [5]; 100 nM) [%],cell viability (Vero E6 [5]; 1000 nM) [%],cell viability (Vero E6 [5]; 10000 nM) [%],relative viability EC50 (Calu-3 [6]) [µM],relative viability EC50 (HepG2 [7]) [µM],relative viability EC50 (Vero E6 [8]) [µM],drug sensitivity score (Caco-2 [9]),drug sensitivity score (Calu-3 [10]),drug sensitivity score (HepG2 [11]),drug sensitivity score (U2OS [12]),drug sensitivity score (Vero E6 [13]),relative viability EC50 (Caco-2 [14]) [µM],relative viability EC50 (U2OS [15]) [µM]
Cc1nc(C#Cc2ccnc(Cl)c2)c(C)n1-c1ccc(OC(F)(F)F)cc1 [CTEP],93.9,107,86.9,84.6,55.8,99.2,101,93,96.5,92.3,100,88.6,100,91.5,85.1,94.6,98.2,95.5,100,58.2,102,100,91.8,102,94.5,> 10,> 10,> 10,4,0,0.2,2.1,0,,
C#Cc1cccc(Nc2ncnc3cc(OCCOC)c(OCCO)cc23)c1 [OSI-420],106,101,101,86.9,76.6,115,103,73.8,48.6,47,110,102,100,104,76.7,96.7,99.8,97.6,94.2,85.1,103,105,98.2,79,65.1,0.101,> 10,,2.3,13.1,0.6,0.3,4,> 10,> 10
OCCn1cc(-c2ccc3c(c2)CC/C3=N\O)c(-c2ccncc2)n1 [GDC-0879],98.8,89.4,94.1,101,104,102,94.5,95.2,107,104,90.6,100,87.2,74.3,25,,,,,,,,,,,> 10,1.45,,0,0,7,,,> 10,
Cc1cnc(NC(=O)Nc2cc(Br)c(C)cc2OC[C@@H]2CNCCO2)cn1,102,94.7,96.9,87.5,37.8,90.7,106,102,76.9,63,106,104,97.9,59.1,33.7,100,99.2,98,62.2,4.8,101,105,102,97.2,71.1,,0.764,,5.4,4.5,8.6,10.2,1.7,1.73,1.2
O=C(Nc1cc(Oc2cc(F)c(NC(=O)C3(C(=O)Nc4ccc(F)cc4)CC3)cc2F)ccn1)C1CC1 [altiratinib],113,106,104,101,99.3,98.5,110,97.1,109,95.5,107,103,94.7,35.8,58.5,,,,,,,,,,,> 10,0.25,,0,0,12.6,,,> 10,
Cc1cc(-c2nc(-c3ccc(OC(F)(F)F)cc3)no2)nn1Cc1ccnc(N2CCN(C3CC3)CC2)c1 [BAY-87-2243],99.4,99,73.7,74.7,71.1,98.5,94.4,92.9,87.7,92,93.1,50.4,20.8,17.8,18.7,97.3,95.3,81.5,73.5,66.6,95.8,98.8,94.3,91,85.1,> 10,0.0071,> 10,8,0.2,31.4,6.5,0.4,,
C[C@H](N)C(=O)N[C@@]1(C(=O)O)C[C@@H](Sc2nnc[nH]2)[C@H]2[C@H](C(=O)O)[C@H]21,108,100,103,98.9,101,102,92.6,96.1,114,110,101,94.7,99.6,110,91,105,96.9,105,100,104,,,,,,> 10,> 10,,0,0,0,0,,> 10,> 10
Cc1nc2ccc(-n3ncc(C(=O)c4cc5ccccc5[nH]4)c3N)cc2[nH]1,100,94.5,92.9,86.4,89.3,100,86.9,98.4,87.6,84.7,94.6,99,87.3,104,76.2,99,94.5,97.8,84.1,84.3,96.5,96,93.6,89.4,69,> 10,> 10,,0.8,0.7,0.7,1.9,2.2,> 10,> 10
Cc1ccc2c(Br)cc(Br)c(OC(=O)c3ccccc3)c2n1 [broxaldine],84.9,100,84.9,93.8,29.2,103,99.8,87.6,97.4,66.5,111,95.5,116,93.7,19.6,98.2,102,98,92.7,42.4,109,108,109,98.3,54.8,,2.53,,4.9,2,5.4,4.3,2.5,2.44,2.14
O=C1c2ccccc2CCC1CNCCc1ccc(O)cc1 (centres undefined) [BE-2254],104,100,99.5,104,98,106,93.3,95.7,101,96.2,114,96,96.7,103,39.1,95.8,97.3,100,99.3,95.5,,,,,,> 10,3.45,,0,0,3,0,,> 10,> 10
CCc1nc(C(N)=O)c(Nc2ccc(N3CCC(N4CCN(C)CC4)CC3)c(OC)c2)nc1NC1CCOCC1 [gilteritinib],110,98.1,102,90.2,54.4,96.4,95.8,96.3,94.1,59.8,99.2,92.1,92.4,73.5,27.9,105,102,99.1,93.1,46,106,103,100,101,37.2,,1.36,3.25,3.9,3,7,4.1,3.3,,2.12
COc1ccc2c(c1)c(CC(=O)N1CCOCC1)c(C)n2C(=O)c1ccc(Cl)cc1 [BML-190],91.4,109,96.7,101,85.6,106,106,92.7,108,96.9,102,102,104,88,94.8,96.2,101,106,99.3,112,,,,,,> 10,> 10,,0.2,0,0.5,0,,> 10,> 10
